Experimental data reported in patent US8178688B2, “Benzamidine derivatives, process for the preparation thereof and pharmaceutical composition comprising the same” (Dong Wha Pharmaceutical Co., Ltd., priority 2004, dated 2012).
Marks after values point to notes of the source that are not given here.

How the values were obtained:
osteoblast = assay: Effect on bone formation (osteoblast nodule mineralization, Alizarin red S); assay type: cell-based, ICR mice; settings: calvarial osteoblast in osteogenic differentiation medium
Method: The osteoblast, treated in this experiment, was prepared from the osteoblast as prepared in the above.
The osteoblast, isolated from sequential enzymatic treatment of calvariae from neonated ICR mice, was cultured in α-MEM medium containing 10% FBS for 4˜5 days. The osteoblast was also cultured for 24 hr after seeding the cells on a 12 well plate (10^5 cell/well), and medium was exchanged with the osteogenic differentiation medium containing 10 mM β-glycerophosphate and 50 μg/ml ascorbic acid.
The test substances at the concentration of 0.1 uM and 0.1 nM were added to the above medium for evaluating the effect promoting bone formation. The differentiation medium containing the test substances was exchanged every 3 or 4 days for 14 to 21 days until confirming the nodule mineralization.
The cell was rinsed twice with distilled water, and fixed by the 10% formalin solutions for 30 minutes. Alizarin red S and Von-kossa Solution were treated on the plate for measuring deposited calcium and phosphate in cell matrix, and the activity of the test substances on the bone formation was analyzed by determining stained area.
Additionally, for the purpose of estimating quantitative Arizarin red S in cell matrix, stained Arizarin red S was extracted by treating 10 mM sodium phosphate solution (pH 7.0), containing 10% cetylpyridinium chloride, for 15˜30 minutes in the shaking incubator, and then the amount of the deposited calcium was estimated by calculating the absorbance of the extracted Arizarin red S at 564 nm. […]

[1] = system: mouse models of ovalbumin-induced asthma; assay: Therapeutic effect in mouse model of asthma induced with ovalbumin (lung weight, total leukocytes in blood and BALF); assay type: in vivo, C57BL/6 mice; settings: for Changes on the lung weight, Relative (%) / Total leukocytes in peripheral blood (×10^3/1 mm^3) / Total leukocytes in BALF (×10^5/1 ml): 200 mg/kg oral once a day; for Changes on the lung weight, Relative (%): % of body weight, vehicle control 0.780 ± 0.103, sham 0.694 ± 0.049; for Total leukocytes in peripheral blood (×10^3/1 mm^3): vehicle control 14.49 ± 0.88, sham 10.27 ± 0.93; for Total leukocytes in BALF (×10^5/1 ml): vehicle control 75.68 ± 4.67, sham 51.75 ± 2.15
Method: The benzamidine compounds were assated for therapeutic effect on allergic inflammation in mouse models of ovalbumin-induced asthma. Starting on the day of immunization the benzamidine compounds were dosed for 17 consecutive days. The experimental animals were re-exposed to ovalbumin 14 days after the sensitization and then sacrificed 3 days after the re-exposure. Changes in lung weight, cellular components of peripheral blood and bronchoalveolar lavage fluid, and lung histopathology were observed.
A total of 110 female C57BL/6 mice (7-week-old, SLC, Japan) were adapted to a laboratory environment for 6 days before being used in earnest experiments. While being housed at a densirt of five in a plastic cage, the experimental animals were breed in a breeding room with controlled temperature (20-25° C.) and humidity (30-35%). Under light-dark cycles of 12 hours, mice were allowed to have free access to feedstuff and tap water. While asthma was induced in 100 mice by ovalbumin, 10 mice were used as a non-treated group.
200 mg of benzamidine compounds (Methansulfonic acid or Hydrochloride) were completely dissolved in 5 ml of sterilized distilled water. The benzamidine compound in the solutions was orally administered at doses of 200 mg per kg of body weight once a day from the day of the sensitization with ovalbumin. The control group was administered with equal volumes of sterilized distilled water in the same manner.
A solution of 200 μg of ovalbumin (Grade VI; Sigma, st. Louis, Mo., USA) and 180 mg of aluminium hydroxide (Al(OH)3, dried powder gel; Aldrich, Milwaukee, USA) in 4 ml of physiological saline was allowed to stand at 4° C. overnight and was administered to the experimental animals (200 μl, abdominal injection) for sensitization. As for the non-treated group, a solution of only aluminium hydroxide in saline was injected. 15 days after sensitization, a 1.5% ovalbumin solution was sprayed in air using a nebulizer, followed by exposing the experimental animals to the spray for 10 min to induce asthma therein. The non-treated group was exposed only to saline in the same manner. All the experimental animals were sacrificed 3 days after the exposure.
On the final day of experiment, the lungs were separated form adjacent organs. The removed lungs were weight among individual animals, the relative weight of the lungs was calculated as a percentage of body weight using the following Equation 3. Relative weight of Lung(%)=(Absolute lung weight/Body weight)×100 Equation 3
On the final day of experiment, all the experimental animals were etherized and underwent laparotomy to expose the abdominal vena cava, from which 1 ml of blood was the taken. Using a hemocytometer, a blood sample was measured for total leukocyte counts in a ×10^3/1 mm^3 units.
On the final day of experiment, secretions present in bronchi and alveola were examined for cyrological constitution. After veing etherized, the experimental animals were operated to open the cervical region and the thorax. The jugular vein was allowed to bleed, followed by endotracheal intubation. 3 ml of phosphate buffered saline was injected twice through the tube and the thorax was massaged for 30 sec to obtain cell suspension from the lungs. Using a hemocytometer, a […] was measured for total leukocyte counts in a ×10^5/1 ml units.

[2] = system: rat models subjected to rib fracture; assay: Effect of promoting fracture healing in rib fracture-induced rat model (callus volume, callus osteoid volume); assay type: in vivo, SD rats; settings: for Changes on callus volume (mm^3): 200 mg/kg oral once a day for 2 weeks from day 2 of surgery, 8th and 9th ribs, vehicle control 37.22 ± 8.23; for Changes on callus osteoid volume (OV/callus, %): 200 mg/kg oral once a day for 2 weeks, 8th rib, vehicle control 35.88 ± 5.06
Method: The benzamidine compounds were assayed for therapeutic effect on bone fracture in rat models subjected to rib fracture. Benzamidine derivates are dosed from 2 days after operation for 2 weeks, and the changes on the volume and histology of callus were observed.
A total of 54 SD rats (8 weeks old upon receipt, Jung Ang Lab. Animal Co., Korea) were used. While being housed at a density of three to a plastic cage, the experimental animals were kept in a breeding room under controlled temperature (20-25° C.) and humidity (30-35%). Under light-dark cycles of 12 hours, the rats were allowed to have free access to feedstuff and tap water.
200 mg of benzamidine compounds (Methansulfonic acid or Hydrochloride) were completely dissolved in 5 ml of sterilized distilled water. The benzamidine derivatives in the solutions was orally administered at doses of 200 mg per kg of body weight once a day for 2 weeks from day 2 of the surgery.
8th and 9th rib of each animal was exposed by general operation under ketamine HCl and xylazine HCl anesthesia, and the exposed ribs were crossly dissected using surgical scissors. After rib-fracture, surgical wounds were closed with general skin suture.
8th and 9th ribs of each animal were separated at sacrifice and then the long axis and short axis of callus were calculated as mm units. The volume of callus was calculated as following Equation 2. Callus volume(mm^3)=(a×b^2)/2 Equation 2 • a: long diameter of bony callus • b: short diameter of bony callus
The 8th rib including fracture sites of each rat was separated and fixed in 10% neutral buffered formalin, and then decalcified in decalcifying solution (24.4% formic acid, and 0.5N sodium hydroxide) for 5 days (mixed decalcifying solution was exchanges once a day for 5 days). After decalcification, the rib was embedded in paraffin, sectioned (3˜4 μm) and stained with hematoxylin-eosin or Masson's trichrome for composition of callus observation.
Osteloid volume (OV/callus) in callus regions of prepared histological specimens were detected as % levels using automated image analysis (analySIS Image Processing; SIS, Germany) under microscopy.

[3] = 200 mg/kg oral once a day from sensitization, vehicle control 0.134 ± 0.012, sham 0.110 ± 0.009

Row | SMILES | bone forming activity (%) (osteoblast; 0.1 nM) | bone forming activity (%) (osteoblast; 0.1 μM) | Changes on the lung weight, Absolute [1, 3] | Changes on the lung weight, Relative (%) [1] | Total leukocytes in peripheral blood (×10^3/1 mm^3) [1] | Total leukocytes in BALF (×10^5/1 ml) [1] | Changes on callus volume (mm^3) [2] | Changes on callus osteoid volume (OV/callus, %) [2] | Changes on the lung weight, Absolute (g) [1, 3]
1 | CCCN(CCC)c1nc(-c2ccc(OCCCCCOc3ccc(C(=N)NO)cc3)cc2)c(CC)s1 [Example 138, N-hydroxy-4-(5-[4-(2-dipropylamino-5-ethyl-1,3-thiazol-4-yl)phenoxy]pentoxy)-benzamidine] | 8.81% | 6.32% | 0.113 ± 0.011 g | 0.691 ± 0.065 % | 13.60 ± 0.83 # ×10^3/1 mm^3 | 68.83 ± 5.29 ## ×10^5/1 ml | 27.34 ± 5.46* mm^3 | 53.83 ± 7.84 % | 
2 | Cc1sc(-c2cccnc2)nc1-c1ccc(OCCCCCOc2ccc(C(=N)NO)cc2)cc1 [Example 13, N-hydroxy-4-(5-[4-(5-methyl-2-pyridin-3-yl-1,3-thiazol-4-yl)phenoxy]pentoxy)-benzamidine] |  |  | 0.108 ± 0.009 g | 0.695 ± 0.075% | 14.06 ± 1.07 ×10^3/1 mm^3 | 72.75 ± 4.88 ×10^5/1 ml | 23.15 ± 7.85* mm^3 | 43.19 ± 4.47 % | 
3 | CC(C)c1nc(-c2ccc(OCCCCCOc3ccc(C(=N)NO)cc3)cc2)c(CC2CCCC2)s1 [Example 47, N-hydroxy-4-(5-[4-(5-cyclopentylnnethyl-2-isopropyl-1,3-thiazol-4-yl)phenoxy]pentoxy)-benzamidine] | 9.4% | 11.31% |  | 0.706 ± 0.059% | 12.55 ± 1.35 # ×10^3/1 mm^3 | 62.40 ± 7.56 # ×10^5/1 ml | 27.56 ± 6.94** mm^3 | 45.69 ± 7.07% | 0.122 ± 0.010 ## g
